Data taken from ChEMBL document CHEMBL4138182, “Aminomethylation of heliomycin: Preparation and anticancer characterization of the first series of semi-synthetic derivatives” (Eur J Med Chem, 2018).

Test system: not listed separately
Assay: Antiproliferative activity against human K562/4 cells after 72 hrs by MTT assay
Assay type: functional, cell-based
Conditions: K562/4, 72 h

`CCN1CCN(Cc2c(O)c3c4c(c2O)C(=O)C(C)(C)c2cc(O)c5c(C)cc(O)c(c5c2-4)C3=O)CC1` and `Cc1cc(O)c2c3c4c(cc(O)c13)C(C)(C)C(=O)c1c(O)c(CN3CCN(CCO)CC3)c(O)c(c1-4)C2=O` are within 1.5-fold of each other in IC50: 3.4 µM for the first, 4.2 µM for the second.

First: CCN(CC)Cc1c(O)c2c3c(c1O)C(=O)C(C)(C)c1cc(O)c4c(C)cc(O)c(c4c1-3)C2=O
Second: Cc1cc(O)c2c3c4c(cc(O)c13)C(C)(C)C(=O)c1c(O)c(CNCCN(C)C)c(O)c(c1-4)C2=O
The IC50 of the first is 7.3-fold lower: 0.3 µM for the first, 2.2 µM for the second.

`Cc1cc(O)c2c3c4c(cc(O)c13)C(C)(C)C(=O)c1c(O)c(CN3CCN(C)CC3)c(O)c(c1-4)C2=O` and `Cc1cc(O)c2c3c4c(cc(O)c13)C(C)(C)C(=O)c1c(O)c(CN3CCCC3)c(O)c(c1-4)C2=O` are within 1.5-fold of each other in IC50: 4.5 µM for the first, 3.4 µM for the second.

First: Cc1cc(O)c2c3c4c(cc(O)c13)C(C)(C)C(=O)c1c(O)c(CN3CCCCC3)c(O)c(c1-4)C2=O
Second: Cc1cc(O)c2c3c4c(cc(O)c13)C(C)(C)C(=O)c1c(O)c(CN3CCOCC3)c(O)c(c1-4)C2=O
The IC50 of the first is 2.7-fold higher: 0.8 µM for the first, 0.3 µM for the second.

Compound `Cc1cc(O)c2c3c4c(cc(O)c13)C(C)(C)C(=O)c1c(O)c(CN3CCCC(O)C3)c(O)c(c1-4)C2=O` (stereo not drawn) has an IC50 of 0.9 µM.

Test system: HeLa
Assay: Antiproliferative activity against human HeLa cells after 72 hrs by MTT assay
Assay type: functional, cell-based
Conditions: not given

Compared with `CCN1CCN(Cc2c(O)c3c4c(c2O)C(=O)C(C)(C)c2cc(O)c5c(C)cc(O)c(c5c2-4)C3=O)CC1`, `Cc1cc(O)c2c3c4c(cc(O)c13)C(C)(C)C(=O)c1c(O)c(CN3CCN(CCO)CC3)c(O)c(c1-4)C2=O` is 6-fold higher in IC50: 0.8 µM for the first, 4.8 µM for the second. The first is the more potent here.

First: CCN(CC)Cc1c(O)c2c3c(c1O)C(=O)C(C)(C)c1cc(O)c4c(C)cc(O)c(c4c1-3)C2=O
Second: Cc1cc(O)c2c3c4c(cc(O)c13)C(C)(C)C(=O)c1c(O)c(CNCCN(C)C)c(O)c(c1-4)C2=O
The IC50 of the first is higher: greater than 250 µM for the first, 3.9 µM for the second. The second is the more potent here.

First: Cc1cc(O)c2c3c4c(cc(O)c13)C(C)(C)C(=O)c1c(O)c(CN3CCN(C)CC3)c(O)c(c1-4)C2=O
Second: Cc1cc(O)c2c3c4c(cc(O)c13)C(C)(C)C(=O)c1c(O)c(CN3CCCC3)c(O)c(c1-4)C2=O
The IC50 of the first is 3.9-fold lower: 3.6 µM for the first, 14.2 µM for the second. The first is the more potent here.

First: Cc1cc(O)c2c3c4c(cc(O)c13)C(C)(C)C(=O)c1c(O)c(CN3CCCCC3)c(O)c(c1-4)C2=O
Second: Cc1cc(O)c2c3c4c(cc(O)c13)C(C)(C)C(=O)c1c(O)c(CN3CCOCC3)c(O)c(c1-4)C2=O
The IC50 of the first is 14-fold lower: 0.8 µM for the first, 11.1 µM for the second.

For `Cc1cc(O)c2c3c4c(cc(O)c13)C(C)(C)C(=O)c1c(O)c(CN3CCCC(O)C3)c(O)c(c1-4)C2=O` (stereo not drawn), the IC50 was 3.6 µM.

Test system: K562
Assay: Antiproliferative activity against human K562 cells after 72 hrs by MTT assay
Assay type: functional, cell-based
Conditions: K562, 72 h

Going from `CCN1CCN(Cc2c(O)c3c4c(c2O)C(=O)C(C)(C)c2cc(O)c5c(C)cc(O)c(c5c2-4)C3=O)CC1` to `Cc1cc(O)c2c3c4c(cc(O)c13)C(C)(C)C(=O)c1c(O)c(CN3CCN(CCO)CC3)c(O)c(c1-4)C2=O`, the IC50 rises from 0.9 µM to 2.7 µM (3-fold). The first is the more potent here.

Going from `CCN(CC)Cc1c(O)c2c3c(c1O)C(=O)C(C)(C)c1cc(O)c4c(C)cc(O)c(c4c1-3)C2=O` to `Cc1cc(O)c2c3c4c(cc(O)c13)C(C)(C)C(=O)c1c(O)c(CNCCN(C)C)c(O)c(c1-4)C2=O`, the IC50 rises from 0.4 µM to 2.2 µM (5.5-fold).

`Cc1cc(O)c2c3c4c(cc(O)c13)C(C)(C)C(=O)c1c(O)c(CN3CCN(C)CC3)c(O)c(c1-4)C2=O` and `Cc1cc(O)c2c3c4c(cc(O)c13)C(C)(C)C(=O)c1c(O)c(CN3CCCC3)c(O)c(c1-4)C2=O` are the same in IC50: 1.2 µM for the first, 1.2 µM for the second.

Compared with `Cc1cc(O)c2c3c4c(cc(O)c13)C(C)(C)C(=O)c1c(O)c(CN3CCCCC3)c(O)c(c1-4)C2=O`, `Cc1cc(O)c2c3c4c(cc(O)c13)C(C)(C)C(=O)c1c(O)c(CN3CCOCC3)c(O)c(c1-4)C2=O` is 29-fold higher in IC50: 0.3 µM for the first, 8.6 µM for the second.

`Cc1cc(O)c2c3c4c(cc(O)c13)C(C)(C)C(=O)c1c(O)c(CN3CCCC(O)C3)c(O)c(c1-4)C2=O` (stereo not drawn) showed an IC50 of 0.7 µM.

Test system: HCT-116
Assay: Antiproliferative activity against human HCT116 cells after 72 hrs by MTT assay
Assay type: functional, cell-based
Conditions: HCT-116, 72 h

Going from `CCN1CCN(Cc2c(O)c3c4c(c2O)C(=O)C(C)(C)c2cc(O)c5c(C)cc(O)c(c5c2-4)C3=O)CC1` to `Cc1cc(O)c2c3c4c(cc(O)c13)C(C)(C)C(=O)c1c(O)c(CN3CCN(CCO)CC3)c(O)c(c1-4)C2=O`, the IC50 rises from 1.6 µM to 3.7 µM (2.3-fold).

Going from `CCN(CC)Cc1c(O)c2c3c(c1O)C(=O)C(C)(C)c1cc(O)c4c(C)cc(O)c(c4c1-3)C2=O` to `Cc1cc(O)c2c3c4c(cc(O)c13)C(C)(C)C(=O)c1c(O)c(CNCCN(C)C)c(O)c(c1-4)C2=O`, the IC50 falls from 1.1 µM to 0.2 µM (5.5-fold). The second is the more potent here.

Compared with `Cc1cc(O)c2c3c4c(cc(O)c13)C(C)(C)C(=O)c1c(O)c(CN3CCN(C)CC3)c(O)c(c1-4)C2=O`, `Cc1cc(O)c2c3c4c(cc(O)c13)C(C)(C)C(=O)c1c(O)c(CN3CCCC3)c(O)c(c1-4)C2=O` is 16-fold lower in IC50: 3.3 µM for the first, 0.2 µM for the second.

`Cc1cc(O)c2c3c4c(cc(O)c13)C(C)(C)C(=O)c1c(O)c(CN3CCCCC3)c(O)c(c1-4)C2=O` and `Cc1cc(O)c2c3c4c(cc(O)c13)C(C)(C)C(=O)c1c(O)c(CN3CCOCC3)c(O)c(c1-4)C2=O` are the same in IC50: 0.3 µM for the first, 0.3 µM for the second.

In the case of `Cc1cc(O)c2c3c4c(cc(O)c13)C(C)(C)C(=O)c1c(O)c(CN3CCCC(O)C3)c(O)c(c1-4)C2=O` (stereo not drawn), the IC50 is reported as 1 µM.

Test system: L1210
Assay: Antiproliferative activity against mouse L1210 cells after 72 hrs by MTT assay
Assay type: functional, cell-based
Conditions: L1210, 72 h

Going from `CCN1CCN(Cc2c(O)c3c4c(c2O)C(=O)C(C)(C)c2cc(O)c5c(C)cc(O)c(c5c2-4)C3=O)CC1` to `Cc1cc(O)c2c3c4c(cc(O)c13)C(C)(C)C(=O)c1c(O)c(CN3CCN(CCO)CC3)c(O)c(c1-4)C2=O`, the IC50 rises from 0.8 µM to 3 µM (3.8-fold).

Going from `CCN(CC)Cc1c(O)c2c3c(c1O)C(=O)C(C)(C)c1cc(O)c4c(C)cc(O)c(c4c1-3)C2=O` to `Cc1cc(O)c2c3c4c(cc(O)c13)C(C)(C)C(=O)c1c(O)c(CNCCN(C)C)c(O)c(c1-4)C2=O`, the IC50 falls from greater than 250 µM to 1.9 µM. The second is the more potent here.

Going from `Cc1cc(O)c2c3c4c(cc(O)c13)C(C)(C)C(=O)c1c(O)c(CN3CCN(C)CC3)c(O)c(c1-4)C2=O` to `Cc1cc(O)c2c3c4c(cc(O)c13)C(C)(C)C(=O)c1c(O)c(CN3CCCC3)c(O)c(c1-4)C2=O`, the IC50 rises from 2.3 µM to 14.1 µM (6.1-fold).

Going from `Cc1cc(O)c2c3c4c(cc(O)c13)C(C)(C)C(=O)c1c(O)c(CN3CCCCC3)c(O)c(c1-4)C2=O` to `Cc1cc(O)c2c3c4c(cc(O)c13)C(C)(C)C(=O)c1c(O)c(CN3CCOCC3)c(O)c(c1-4)C2=O`, the IC50 rises from 3.4 µM to 62 µM (18-fold).

Work on `Cc1cc(O)c2c3c4c(cc(O)c13)C(C)(C)C(=O)c1c(O)c(CN3CCCC(O)C3)c(O)c(c1-4)C2=O` (stereo not drawn) yielded an IC50 of 3.4 µM.

Test system: CCRF-CEM
Assay: Antiproliferative activity against human CEM cells after 72 hrs by MTT assay
Assay type: functional, cell-based
Conditions: not given

Compared with `CCN1CCN(Cc2c(O)c3c4c(c2O)C(=O)C(C)(C)c2cc(O)c5c(C)cc(O)c(c5c2-4)C3=O)CC1`, `Cc1cc(O)c2c3c4c(cc(O)c13)C(C)(C)C(=O)c1c(O)c(CN3CCN(CCO)CC3)c(O)c(c1-4)C2=O` is 6.5-fold higher in IC50: 0.8 µM for the first, 5.2 µM for the second. The first is the more potent here.

Going from `CCN(CC)Cc1c(O)c2c3c(c1O)C(=O)C(C)(C)c1cc(O)c4c(C)cc(O)c(c4c1-3)C2=O` to `Cc1cc(O)c2c3c4c(cc(O)c13)C(C)(C)C(=O)c1c(O)c(CNCCN(C)C)c(O)c(c1-4)C2=O`, the IC50 falls from 198 µM to 1.8 µM (110-fold).

First: Cc1cc(O)c2c3c4c(cc(O)c13)C(C)(C)C(=O)c1c(O)c(CN3CCN(C)CC3)c(O)c(c1-4)C2=O
Second: Cc1cc(O)c2c3c4c(cc(O)c13)C(C)(C)C(=O)c1c(O)c(CN3CCCC3)c(O)c(c1-4)C2=O
The IC50 of the first is 3.4-fold lower: 2.1 µM for the first, 7.2 µM for the second. The first is the more potent here.

Compared with `Cc1cc(O)c2c3c4c(cc(O)c13)C(C)(C)C(=O)c1c(O)c(CN3CCCCC3)c(O)c(c1-4)C2=O`, `Cc1cc(O)c2c3c4c(cc(O)c13)C(C)(C)C(=O)c1c(O)c(CN3CCOCC3)c(O)c(c1-4)C2=O` is 27-fold higher in IC50: 0.9 µM for the first, 24.2 µM for the second.

Work on `Cc1cc(O)c2c3c4c(cc(O)c13)C(C)(C)C(=O)c1c(O)c(CN3CCCC(O)C3)c(O)c(c1-4)C2=O` (stereo not drawn) yielded an IC50 of 2.1 µM.

Test system: HCT-116
Assay: Antiproliferative activity against p53 deficient human HCT116 cells after 72 hrs by MTT assay
Assay type: functional, cell-based
Conditions: HCT-116, 72 h

`CCN1CCN(Cc2c(O)c3c4c(c2O)C(=O)C(C)(C)c2cc(O)c5c(C)cc(O)c(c5c2-4)C3=O)CC1` and `Cc1cc(O)c2c3c4c(cc(O)c13)C(C)(C)C(=O)c1c(O)c(CN3CCN(CCO)CC3)c(O)c(c1-4)C2=O` are within 1.5-fold of each other in IC50: 1.7 µM for the first, 1.3 µM for the second.

`CCN(CC)Cc1c(O)c2c3c(c1O)C(=O)C(C)(C)c1cc(O)c4c(C)cc(O)c(c4c1-3)C2=O` and `Cc1cc(O)c2c3c4c(cc(O)c13)C(C)(C)C(=O)c1c(O)c(CNCCN(C)C)c(O)c(c1-4)C2=O` are within 1.5-fold of each other in IC50: 0.5 µM for the first, 0.7 µM for the second.

First: Cc1cc(O)c2c3c4c(cc(O)c13)C(C)(C)C(=O)c1c(O)c(CN3CCN(C)CC3)c(O)c(c1-4)C2=O
Second: Cc1cc(O)c2c3c4c(cc(O)c13)C(C)(C)C(=O)c1c(O)c(CN3CCCC3)c(O)c(c1-4)C2=O
The IC50 of the first is 5-fold higher: 0.5 µM for the first, 0.1 µM for the second.

First: Cc1cc(O)c2c3c4c(cc(O)c13)C(C)(C)C(=O)c1c(O)c(CN3CCCCC3)c(O)c(c1-4)C2=O
Second: Cc1cc(O)c2c3c4c(cc(O)c13)C(C)(C)C(=O)c1c(O)c(CN3CCOCC3)c(O)c(c1-4)C2=O
The IC50 of the first is 2-fold lower: 0.1 µM for the first, 0.2 µM for the second.

`Cc1cc(O)c2c3c4c(cc(O)c13)C(C)(C)C(=O)c1c(O)c(CN3CCCC(O)C3)c(O)c(c1-4)C2=O` (stereo not drawn) gave an IC50 of 0.9 µM.
